What was measured:
[1] = target: Cyclin-dependent kinase 7 (Homo sapiens) (UniProt P50613); conditions: Compound concentration 1000.0 nM
[2] = target: Mitogen-activated protein kinase kinase kinase kinase 3 (Homo sapiens) (UniProt Q8IVH8); conditions: Compound concentration 1000.0 nM
[3] = target: Ankyrin repeat and protein kinase domain-containing protein 1 (Homo sapiens) (UniProt Q8NFD2); conditions: Compound concentration 1000.0 nM
[4] = tested on: Epidermal growth factor receptor (Homo sapiens), P00533 [UNDEFINED MUTATION]; conditions: Compound concentration 1000.0 nM
[5] = target: Serine/threonine-protein kinase RIO1 (Homo sapiens) (UniProt Q9BRS2); conditions: Compound concentration 1000.0 nM
[6] = target: Serine/threonine-protein kinase 3 (Homo sapiens) (UniProt Q13188); conditions: Compound concentration 1000.0 nM
[7] = target: Inhibitor of nuclear factor kappa-B kinase subunit alpha (Homo sapiens) (UniProt O15111); conditions: Compound concentration 1000.0 nM
[8] = target: Angiopoietin-1 receptor (Homo sapiens) (UniProt Q02763); conditions: Compound concentration 1000.0 nM
[9] = target: Dual specificity protein kinase TTK (Homo sapiens) (UniProt P33981); conditions: Compound concentration 1000.0 nM
[10] = target: Histamine H4 receptor (Homo sapiens) (UniProt Q9H3N8); conditions: Compound concentration 10.0 uM
[11] = target: Serine/threonine-protein kinase ULK1 (Homo sapiens) (UniProt O75385); conditions: Compound concentration 1000.0 nM
[12] = target: Mitogen-activated protein kinase kinase kinase 20 (Homo sapiens) (UniProt Q9NYL2); conditions: Compound concentration 1000.0 nM
[13] = target: RAC-alpha serine/threonine-protein kinase (Homo sapiens) (UniProt P31749); conditions: Compound concentration 1000.0 nM
[14] = target: Ephrin type-A receptor 5 (Homo sapiens) (UniProt P54756); conditions: Compound concentration 1000.0 nM
[15] = target: Mitogen-activated protein kinase kinase kinase 6 (Homo sapiens) (UniProt O95382); conditions: Compound concentration 1000.0 nM
[16] = target: MAP kinase-interacting serine/threonine-protein kinase 1 (Homo sapiens) (UniProt Q9BUB5); conditions: Compound concentration 1000.0 nM
[17] = target: Serine/threonine-protein kinase tousled-like 1 (Homo sapiens) (UniProt Q9UKI8); conditions: Compound concentration 1000.0 nM
[18] = tested on: Epidermal growth factor receptor (Homo sapiens), P00533 [UNDEFINED MUTATION]; conditions: Compound concentration 1000.0 nM; remark: listed apart in the source
[19] = target: Macrophage colony-stimulating factor 1 receptor (Homo sapiens) (UniProt P07333); conditions: Compound concentration 1000.0 nM
[20] = target: Receptor-interacting serine/threonine-protein kinase 1 (Homo sapiens) (UniProt Q13546); conditions: Compound concentration 1000.0 nM
[21] = target: Serine/threonine-protein kinase mTOR (Homo sapiens) (UniProt P42345); conditions: Compound concentration 1000.0 nM
[22] = target: Dual specificity protein kinase CLK2 (Homo sapiens) (UniProt P49760); conditions: Compound concentration 1000.0 nM
[23] = target: Serine/threonine-protein kinase 24 (Homo sapiens) (UniProt Q9Y6E0); conditions: Compound concentration 1000.0 nM
[24] = target: Cyclin-G-associated kinase (Homo sapiens) (UniProt O14976); conditions: Compound concentration 1000.0 nM
[25] = target: Myosin light chain kinase, smooth muscle (Homo sapiens) (UniProt Q15746); conditions: Compound concentration 1000.0 nM
[26] = target: 5-hydroxytryptamine receptor 5A (Homo sapiens) (UniProt P47898); conditions: Compound concentration 10.0 uM
[27] = target: Ephrin type-B receptor 3 (Homo sapiens) (UniProt P54753); conditions: Compound concentration 1000.0 nM
[28] = target: Tyrosine-protein kinase JAK3 (Homo sapiens) (UniProt P52333); conditions: Compound concentration 1000.0 nM
[29] = target: Cyclin-dependent kinase-like 2 (Homo sapiens) (UniProt Q92772); conditions: Compound concentration 1000.0 nM
[30] = target: Calcium/calmodulin-dependent protein kinase type II subunit beta (Homo sapiens) (UniProt Q13554); conditions: Compound concentration 1000.0 nM
[31] = target: Myosin light chain kinase (Homo sapiens) (UniProt Q32MK0); conditions: Compound concentration 1000.0 nM
[32] = target: Aurora kinase C (Homo sapiens) (UniProt Q9UQB9); conditions: Compound concentration 1000.0 nM
[33] = target: Misshapen-like kinase 1 (Homo sapiens) (UniProt Q8N4C8); conditions: Compound concentration 1000.0 nM
[34] = target: 5-hydroxytryptamine receptor 1E (Homo sapiens) (UniProt P28566); conditions: Compound concentration 10.0 uM
[35] = tested on: Mast/stem cell growth factor receptor Kit (Homo sapiens), P10721 [D816V]; conditions: Compound concentration 1000.0 nM
[36] = target: Myosin light chain kinase 2, skeletal/cardiac muscle (Homo sapiens) (UniProt Q9H1R3); conditions: Compound concentration 1000.0 nM
[37] = tested on: Epidermal growth factor receptor (Homo sapiens), P00533 [L858R]; conditions: Compound concentration 1000.0 nM
[38] = target: Cyclin-dependent kinase 15 (Homo sapiens) (UniProt Q96Q40); conditions: Compound concentration 1000.0 nM
[39] = target: Mitogen-activated protein kinase 1 (Homo sapiens) (UniProt P28482); conditions: Compound concentration 1000.0 nM
[40] = target: Receptor tyrosine-protein kinase erbB-3 (Homo sapiens) (UniProt P21860); conditions: Compound concentration 1000.0 nM
[41] = target: Dual serine/threonine and tyrosine protein kinase (Homo sapiens) (UniProt Q6XUX3); conditions: Compound concentration 1000.0 nM
[42] = target: Epithelial discoidin domain-containing receptor 1 (Homo sapiens) (UniProt Q08345); conditions: Compound concentration 1000.0 nM
[43] = target: Maternal embryonic leucine zipper kinase (Homo sapiens) (UniProt Q14680); conditions: Compound concentration 1000.0 nM
[44] = target: Tyrosine-protein kinase ABL1 (Homo sapiens) (UniProt P00519); conditions: Compound concentration 1000.0 nM
[45] = target: Dual specificity testis-specific protein kinase 1 (Homo sapiens) (UniProt Q15569); conditions: Compound concentration 1000.0 nM

Sequence of Cyclin-dependent kinase 15 (Homo sapiens) (Q96Q40 whole entry): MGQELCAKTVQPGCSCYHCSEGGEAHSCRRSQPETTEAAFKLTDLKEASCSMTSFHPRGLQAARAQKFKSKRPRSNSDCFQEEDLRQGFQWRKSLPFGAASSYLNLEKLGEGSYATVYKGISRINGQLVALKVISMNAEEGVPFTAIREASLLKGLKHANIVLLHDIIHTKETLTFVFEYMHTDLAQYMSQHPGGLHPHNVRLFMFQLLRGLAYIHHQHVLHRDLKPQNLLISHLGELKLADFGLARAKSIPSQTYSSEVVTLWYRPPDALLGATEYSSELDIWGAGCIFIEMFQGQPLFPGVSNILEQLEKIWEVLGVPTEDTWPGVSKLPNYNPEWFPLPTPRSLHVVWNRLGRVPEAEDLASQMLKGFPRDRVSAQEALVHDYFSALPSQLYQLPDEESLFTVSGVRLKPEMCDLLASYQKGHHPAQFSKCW
Sequence of Serine/threonine-protein kinase 24 (Homo sapiens) (Q9Y6E0 whole entry, looked up): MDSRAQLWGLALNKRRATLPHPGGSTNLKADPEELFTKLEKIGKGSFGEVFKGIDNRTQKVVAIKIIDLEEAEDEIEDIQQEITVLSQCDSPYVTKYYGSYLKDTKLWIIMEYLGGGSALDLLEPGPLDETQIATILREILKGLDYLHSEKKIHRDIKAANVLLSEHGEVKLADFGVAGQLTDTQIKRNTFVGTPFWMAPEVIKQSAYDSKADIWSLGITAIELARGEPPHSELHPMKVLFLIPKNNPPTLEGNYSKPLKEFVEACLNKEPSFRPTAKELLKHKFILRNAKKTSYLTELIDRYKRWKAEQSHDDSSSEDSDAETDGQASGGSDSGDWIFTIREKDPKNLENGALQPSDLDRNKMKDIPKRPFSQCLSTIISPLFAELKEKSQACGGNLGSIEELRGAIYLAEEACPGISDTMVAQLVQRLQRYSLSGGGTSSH
Sequence of Receptor tyrosine-protein kinase erbB-3 (Homo sapiens) (P21860 whole entry): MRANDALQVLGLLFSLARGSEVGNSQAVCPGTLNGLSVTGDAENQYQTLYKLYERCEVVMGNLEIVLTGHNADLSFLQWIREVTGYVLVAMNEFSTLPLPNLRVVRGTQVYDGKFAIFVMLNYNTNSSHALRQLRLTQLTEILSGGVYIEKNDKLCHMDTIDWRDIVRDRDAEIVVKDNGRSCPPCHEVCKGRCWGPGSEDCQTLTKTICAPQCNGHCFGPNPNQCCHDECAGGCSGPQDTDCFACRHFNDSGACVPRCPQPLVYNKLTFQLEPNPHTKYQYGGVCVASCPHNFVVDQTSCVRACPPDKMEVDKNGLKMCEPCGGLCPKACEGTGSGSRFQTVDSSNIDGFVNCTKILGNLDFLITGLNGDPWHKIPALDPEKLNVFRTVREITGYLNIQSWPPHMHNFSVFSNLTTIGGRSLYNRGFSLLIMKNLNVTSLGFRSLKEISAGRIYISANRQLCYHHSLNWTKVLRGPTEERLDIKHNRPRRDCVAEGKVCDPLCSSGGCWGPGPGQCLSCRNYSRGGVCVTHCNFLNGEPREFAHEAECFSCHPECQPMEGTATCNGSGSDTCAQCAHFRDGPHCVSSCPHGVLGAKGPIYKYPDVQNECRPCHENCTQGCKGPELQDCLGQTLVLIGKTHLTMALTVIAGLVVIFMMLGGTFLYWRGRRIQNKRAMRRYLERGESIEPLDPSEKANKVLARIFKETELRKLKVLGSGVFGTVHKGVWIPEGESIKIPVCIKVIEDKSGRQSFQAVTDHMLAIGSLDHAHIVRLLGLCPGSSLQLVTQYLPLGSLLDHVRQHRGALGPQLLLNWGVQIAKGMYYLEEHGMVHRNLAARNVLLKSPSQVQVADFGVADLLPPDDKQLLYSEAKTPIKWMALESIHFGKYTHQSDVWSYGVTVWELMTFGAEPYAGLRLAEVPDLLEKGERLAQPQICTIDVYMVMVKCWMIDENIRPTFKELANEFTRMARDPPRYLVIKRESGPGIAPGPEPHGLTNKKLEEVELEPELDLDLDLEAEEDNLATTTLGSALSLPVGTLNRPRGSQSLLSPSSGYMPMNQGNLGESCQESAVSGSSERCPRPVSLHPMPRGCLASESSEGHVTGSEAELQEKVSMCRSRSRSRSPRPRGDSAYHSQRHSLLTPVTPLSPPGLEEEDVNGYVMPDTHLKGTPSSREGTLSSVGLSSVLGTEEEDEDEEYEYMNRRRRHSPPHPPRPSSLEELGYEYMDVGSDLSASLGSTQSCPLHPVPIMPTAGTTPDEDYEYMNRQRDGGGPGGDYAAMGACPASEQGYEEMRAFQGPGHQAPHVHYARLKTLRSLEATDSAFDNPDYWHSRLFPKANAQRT
Sequence of Tyrosine-protein kinase ABL1 (Homo sapiens) (P00519 whole entry): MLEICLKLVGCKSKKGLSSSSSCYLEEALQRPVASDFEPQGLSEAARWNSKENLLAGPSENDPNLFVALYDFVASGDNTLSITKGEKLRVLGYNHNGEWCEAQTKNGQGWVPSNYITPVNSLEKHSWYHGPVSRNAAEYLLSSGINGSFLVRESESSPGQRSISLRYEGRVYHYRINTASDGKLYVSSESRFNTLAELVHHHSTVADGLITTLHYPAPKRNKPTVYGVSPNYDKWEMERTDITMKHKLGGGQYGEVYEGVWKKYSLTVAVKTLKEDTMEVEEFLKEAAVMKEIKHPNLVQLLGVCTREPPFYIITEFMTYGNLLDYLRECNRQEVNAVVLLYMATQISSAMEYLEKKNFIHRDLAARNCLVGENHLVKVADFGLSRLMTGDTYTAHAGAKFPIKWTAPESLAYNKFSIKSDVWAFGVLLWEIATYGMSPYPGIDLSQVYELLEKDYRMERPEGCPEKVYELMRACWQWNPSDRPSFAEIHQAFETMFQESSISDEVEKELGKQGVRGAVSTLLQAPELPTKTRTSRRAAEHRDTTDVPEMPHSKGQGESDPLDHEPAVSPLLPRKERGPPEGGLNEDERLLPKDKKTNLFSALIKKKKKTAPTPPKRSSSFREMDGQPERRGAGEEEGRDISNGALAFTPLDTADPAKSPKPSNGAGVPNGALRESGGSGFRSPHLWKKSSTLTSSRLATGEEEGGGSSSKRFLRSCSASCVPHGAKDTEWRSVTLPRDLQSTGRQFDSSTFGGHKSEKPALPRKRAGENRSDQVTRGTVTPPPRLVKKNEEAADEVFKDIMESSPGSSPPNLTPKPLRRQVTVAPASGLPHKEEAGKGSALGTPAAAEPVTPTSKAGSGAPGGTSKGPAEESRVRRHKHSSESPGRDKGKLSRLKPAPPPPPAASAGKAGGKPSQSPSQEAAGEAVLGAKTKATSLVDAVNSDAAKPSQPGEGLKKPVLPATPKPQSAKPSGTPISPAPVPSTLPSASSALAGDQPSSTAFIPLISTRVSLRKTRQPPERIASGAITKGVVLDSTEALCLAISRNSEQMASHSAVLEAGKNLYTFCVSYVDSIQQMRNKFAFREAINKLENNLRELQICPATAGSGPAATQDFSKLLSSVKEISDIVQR
Sequence of Angiopoietin-1 receptor (Homo sapiens) (Q02763 whole entry): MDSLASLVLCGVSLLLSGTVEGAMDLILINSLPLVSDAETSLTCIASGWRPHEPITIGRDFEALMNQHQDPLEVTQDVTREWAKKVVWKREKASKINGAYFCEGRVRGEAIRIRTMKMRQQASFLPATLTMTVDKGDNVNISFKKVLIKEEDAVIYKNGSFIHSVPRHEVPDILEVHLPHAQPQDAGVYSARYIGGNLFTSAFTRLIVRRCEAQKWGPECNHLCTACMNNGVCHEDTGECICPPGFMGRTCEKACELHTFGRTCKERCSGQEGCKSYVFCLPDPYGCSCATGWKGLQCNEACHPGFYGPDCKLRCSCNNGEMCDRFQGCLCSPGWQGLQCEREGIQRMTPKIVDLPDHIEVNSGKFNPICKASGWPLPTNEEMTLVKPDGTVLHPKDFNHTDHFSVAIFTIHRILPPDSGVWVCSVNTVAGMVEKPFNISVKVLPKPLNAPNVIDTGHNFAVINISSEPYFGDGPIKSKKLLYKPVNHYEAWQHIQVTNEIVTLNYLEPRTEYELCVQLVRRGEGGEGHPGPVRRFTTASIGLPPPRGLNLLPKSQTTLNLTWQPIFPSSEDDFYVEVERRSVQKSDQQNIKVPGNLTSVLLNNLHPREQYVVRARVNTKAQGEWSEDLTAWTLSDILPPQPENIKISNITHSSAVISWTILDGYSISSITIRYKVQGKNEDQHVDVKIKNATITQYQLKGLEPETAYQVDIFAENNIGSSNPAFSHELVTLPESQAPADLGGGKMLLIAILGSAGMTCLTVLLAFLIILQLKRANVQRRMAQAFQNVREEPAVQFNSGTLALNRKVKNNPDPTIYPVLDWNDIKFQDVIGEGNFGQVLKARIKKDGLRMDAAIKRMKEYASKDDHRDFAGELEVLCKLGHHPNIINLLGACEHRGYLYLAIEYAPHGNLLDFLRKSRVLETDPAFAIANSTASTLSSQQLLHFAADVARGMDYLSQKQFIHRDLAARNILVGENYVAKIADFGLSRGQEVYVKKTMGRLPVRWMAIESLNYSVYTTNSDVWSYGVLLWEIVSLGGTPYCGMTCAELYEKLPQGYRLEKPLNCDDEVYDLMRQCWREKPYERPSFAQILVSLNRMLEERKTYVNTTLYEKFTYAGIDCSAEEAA
Sequence of Histamine H4 receptor (Homo sapiens) (Q9H3N8 whole entry): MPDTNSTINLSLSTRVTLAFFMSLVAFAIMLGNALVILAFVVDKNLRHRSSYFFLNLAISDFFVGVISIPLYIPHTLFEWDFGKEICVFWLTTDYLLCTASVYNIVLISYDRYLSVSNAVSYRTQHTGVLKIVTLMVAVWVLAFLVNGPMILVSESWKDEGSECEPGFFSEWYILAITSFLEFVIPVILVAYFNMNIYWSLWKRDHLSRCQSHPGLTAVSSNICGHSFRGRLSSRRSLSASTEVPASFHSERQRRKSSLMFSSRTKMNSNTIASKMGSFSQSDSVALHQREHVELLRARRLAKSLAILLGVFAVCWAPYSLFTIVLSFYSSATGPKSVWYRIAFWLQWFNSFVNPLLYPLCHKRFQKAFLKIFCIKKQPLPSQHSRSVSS

SMILES: CCCCN(CCCC)C(=O)CN1C[C@@H](c2cc(OC)c3c(c2)OCO3)[C@H](C(=O)O)[C@H]1CC(C)(C)CCC [A-545]
- residual activity [1]: 89.5%
- residual activity [2]: 94.1%
- residual activity [3]: 95.7%
- residual activity [4]: 100%
- residual activity [5]: 100%
- residual activity [6]: 100%
- residual activity [7]: 100%
- residual activity [8]: 100%
- residual activity [9]: 100%
- inhibition [10]: 4.1%
- residual activity [11]: 89.2%
- residual activity [12]: 91.3%
- residual activity [13]: 85.7%
- residual activity [14]: 81.9%
- residual activity [15]: 100%
- residual activity [16]: 100%
- residual activity [17]: 82.4%
- residual activity [18]: 75.9%
- residual activity [19]: 100%
- residual activity [20]: 100%
- residual activity [21]: 100%
- residual activity [22]: 100%
- residual activity [23]: 93.9%
- residual activity [24]: 95.8%
- residual activity [25]: 84.4%
- inhibition [26]: 43.5%
- residual activity [27]: 100%
- residual activity [28]: 93.6%
- residual activity [29]: 39.2%
- residual activity [30]: 100%
- residual activity [31]: 100%
- residual activity [32]: 100%
- residual activity [33]: 100%
- inhibition [34]: 27.1%
- residual activity [35]: 95.8%
- residual activity [36]: 100%
- residual activity [37]: 100%
- residual activity [38]: 93.8%
- residual activity [39]: 82.1%
- residual activity [40]: 100%
- residual activity [41]: 99.7%
- residual activity [42]: 100%
- residual activity [43]: 100%
- residual activity [44]: 94.8%
- residual activity [45]: 94.3%

SMILES: CCCCN(CCCC)C(=O)CN1C[C@H](c2cc(OC)c3c(c2)OCO3)[C@@H](C(=O)O)[C@@H]1CC(C)(C)CCC [ABT-546]
- residual activity [1]: 100%
- residual activity [2]: 100%
- residual activity [3]: 55.1%
- residual activity [4]: 85%
- residual activity [5]: 65.8%
- residual activity [6]: 96.1%
- residual activity [7]: 56.2%
- residual activity [8]: 90.5%
- residual activity [9]: 100%
- inhibition [10]: -0.606%
- residual activity [11]: 79.4%
- residual activity [12]: 85.2%
- residual activity [13]: 100%
- residual activity [14]: 100%
- residual activity [15]: 81.7%
- residual activity [16]: 93.3%
- residual activity [17]: 100%
- residual activity [18]: 79.8%
- residual activity [19]: 43%
- residual activity [20]: 100%
- residual activity [21]: 100%
- residual activity [22]: 100%
- residual activity [23]: 100%
- residual activity [24]: 100%
- residual activity [25]: 100%
- inhibition [26]: -5.07%
- residual activity [27]: 100%
- residual activity [28]: 71.3%
- residual activity [29]: 100%
- residual activity [30]: 100%
- residual activity [31]: 100%
- residual activity [32]: 100%
- residual activity [33]: 88.4%
- inhibition [34]: 3.64%
- residual activity [35]: 100%
- residual activity [36]: 100%
- residual activity [37]: 99.7%
- residual activity [38]: 100%
- residual activity [39]: 100%
- residual activity [40]: 100%
- residual activity [41]: 68.6%
- residual activity [42]: 95.5%
- residual activity [43]: 100%
- residual activity [44]: 96.5%
- residual activity [45]: 100%

From ChEMBL document CHEMBL4507258 (2021)
